Where “and” joins values, the source holds several entries; their conditions need not be identical. Equal entries are not always repeated.
Columns and labels:
Assay type in all cases: biochemical
[1] = system: Anti-Fluorescein and Anti-Morphine; assay: Table I fluorescence readings: fluorescein-morphine with antifluorescein and/or anti-morphine, with and without codeine
Experimental: In order to establish the utility of the subject compounds, the following assays were carried out. […] The fluorometer employed was a Perkin-Elmer MPF-2a. Antibodies to the fluorescers had been prepared according to normal procedures. The bovine serum albumin conjugates were injected into sheep, and after appropriate periods of time, the antibodies harvested according to conventional techniques. For typical methods of obtaining antibodies, see Microbiology, Hober Medical Division, Harper and Rowe, 1969; Landsteiner, Specificity of Seriological Reactions, Dover Publications, New York, 1962; Kabat, et al, supra; and Williams, et al, Methods in Immunology and Immunochemistry, Vol. 1, Academic Press, New York, 1967.
(§1) The reagents which were employed were as follows: FLUMO (fluorescein-morphine conjugate, Example V) was 3× 10^-6 M in water; antifluorescein was 5.6× 10^-6 M in binding sites, in water, 0.05M phosphate, pH 8.0; anti-morphine was 2× 10^-4 M in binding sites, 0.05M tris-HCl, pH 8.0, in saline solution; buffer was Tris/saline 0.05M/l, pH 8,0. Opiate solutions had 1,000 μg/ml of codeine. The solution was then diluted to a final volume of 4 ml with buffer.
(§2) All of the determinations were made at a sensitivity setting on the instrument of 4. Excitation light was 460 nm and the emitted light read at 516 nm, with a band width of 10 nm.
(§3) Where a reading is given but the absence of any material is indicated, only buffer was present in the cell. The reading times indicate the interval of time from the time of the first reading to the reading for the result which is reported, the first reading being made within as short an interval as possible of the mixing.

Anti-Morphine [2] = assay: Fluorescence assay for codeine with morphine-fluorescein conjugate (Ex. V) and antimorphine (Table 2)
Excerpt: The following tables indicate the results.

Anti-Morphine [3] = assay: Fluorescence quenching of fluorescein-morphine by anti-morphine alone (Table I, cell No. 3); settings: for Signal Intensity: fluorescein-morphine 5 μl + anti-morphine 5 μl
Experimental: as §1, §2, §3

COc1ccc2c3c1O[C@H]1[C@@H](O)C=C[C@H]4[C@@H](C2)N(C)CC[C@@]341 [Codeine, codeine, reference compound]
change in signal intensity ([1]; cell No. 1, codeine added to mixture of the two antibodies, over 90 minutes): 0.5 units | change in signal intensity ([1]; cell No. 3, both antibodies with codeine and fluorescein-morphine, over 90 minutes): 6.5 units | Signal Intensity ([1]; codeine 5 μl + anti-fluorescein + anti-morphine, no fluorescein-morphine, 90 min, cell No. 1): 6 | Signal Intensity ([1]; codeine 5 μl + anti-fluorescein + anti-morphine, no fluorescein-morphine, first reading, cell No. 1): 5.5 | Signal Intensity ([1]; codeine 5 μl added to fluorescein-morphine + anti-fluorescein + anti-morphine, 90 min, cell No. 3): 16 | Signal Intensity ([1]; codeine 5 μl added to fluorescein-morphine + anti-fluorescein + anti-morphine, first reading, cell No. 3): 20 | change in fluorescence ([1]; codeine introduced into mixture of fluorescein-morphine and antibodies to fluorescein and morphine): a detectable change in fluorescence is obtained | fluorescence quenched by the anti-morphine that is recovered with the addition of codeine (Anti-Morphine [2]): about 30% | Fluorescence Signal (Anti-Morphine [2]; Ex. V + anti-morphine + codeine 1.9 × 10^-7 M): 62.5 arbitrary units | Fluorescence Signal (Anti-Morphine [2]; Ex. V + anti-morphine + codeine 6.7 × 10^-7 M): 64.5 arbitrary units | Fluorescence Signal (Anti-Morphine [2]; Ex. V + anti-morphine + codeine 9.5 × 10^-8 M): 61 arbitrary units | concentration of codeine detectible (Anti-Morphine [2]; with the particular materials employed): about 10^-7

CN1CC[C@]23c4c5ccc(OCC(=O)Nc6ccc7c(c6)C6(OC7=O)c7ccc(O)cc7Oc7cc(O)ccc76)c4O[C@H]2[C@@H](O)C=C[C@H]3[C@H]1C5 [Ex. V]
change in signal intensity ([1]; cell No. 2, no codeine, in the first 5 minutes): 1.5 units | change in signal intensity ([1]; cell No. 2, no codeine, over 90 minutes): 2.5 units | Signal Intensity ([1]; fluorescein-morphine 5 μl + anti-fluorescein 5 μl + anti-morphine 5 μl, first reading, cells No. 2 and 3): 25 and 23 | Signal Intensity ([1]; fluorescein-morphine 5 μl + anti-fluorescein 5 μl, cell No. 2): 21 | Signal Intensity ([1]; fluorescein-morphine 5 μl alone, buffer pH 8.0, ex 460 nm, em 516 nm, cells No. 2 and 3): 62 and 46 | Signal Intensity ([1]; fluorescein-morphine + anti-fluorescein + anti-morphine (5 μl each), 5 min, cells No. 2 and 3): 26.5 and 22.5 | Signal Intensity ([1]; fluorescein-morphine + anti-fluorescein + anti-morphine (5 μl each), 90 min, cell No. 2): 27.5 | Signal Intensity (Anti-Morphine [3]; 5 min): 35 | Signal Intensity (Anti-Morphine [3]; first reading): 35.5 | reduction in signal intensity (Anti-Morphine [3]; fluorescein-morphine combined with antimorphine): approximately 25% | Fluorescence Signal (Anti-Morphine [2]; Ex. V 1.9 × 10^-8 M alone): 79 arbitrary units

— US4160016A, “Receptor fluorescent immunoassay” (Syva Company, priority 1977, dated 1979)
